Here are results for 1 molecule from patent US12024506B2, “Compounds” (Oxford University Innovation Limited, priority 2018, dated 2024).

Format in all cases: cell-based
Settings in all cases: HEK293T cells, 5, 10 and 20 μM, 20 h

In assay [1] the target is T1, HRASG12V interaction with PI3K, CRAF, RALGDS (Homo sapiens, UniProt P01112, G12V).
T1 construct: expressed in transfected cells; host or cells: HEK293T
Kind of assay: BRET2 cell assay, HRAS G12V-effector interaction. An excerpt:
(§1) The BRET ratio corresponds to the light emitted by the GFP2 acceptor constructs (515 nm±30) upon addition of Coelenterazine 400a divided by the light emitted by the RLuc8 donor constructs (410 nm±80). The normalized BRET ratio is the BRET ratio normalized to the DMSO negative and calculated as follows: (BRETcompound/BRETDMSO)×100, where BRETcompound corresponds to the BRET ratio for the compound-treated cells, BRETDMSO to the DMSO-treated cells. Each experiment was repeated at least three times. Statistical analyses were performed using a one-way ANOVA followed by Dunnett's post-tests (*P<0.05, **P<0.01, ***P<0.001, ****P<0.0001). Where error bars are presented, they correspond to mean values±SD of biological repeats (a-c).
(§2) HEK293T cells were transfected 24 hr with plasmids expressing the NRAS Q61H […] and HRAS G12V (B, D) biosensors together with the indicated RBDs of PI3K, CRAF and RALGDS (A, B) or full-length CRAF. […]
(§3) 650,000 HEK293T were seeded in each well of a 6 well plate. […] The final concentrations in the cells were 0, 5, 10 and 20 µM (therefore the intermediate 10× concentrations were 0, 50, 100 and 200 μM. 10 μL of 10× compounds were added in each well of the 96 well plate to 0, 5, 10 and 20 µM final concentrations (with final 0.2% DMSO each). Quadruplicates were performed for each point. Cells were left for an additional 20 hours at 37° C. before the BRET2 signal reading directly after addition of Coelenterazine 400a substrate (10 µM final) to cells (Cayman Chemicals, cat #16157). BRET2 reading was carried out on an Envision instrument (2103 Multilabel Reader, PerkinElmer) with the BRET2 Dual Emission optical module (515 nm±30 and 410 nm±80; PerkinElmer).
(§4) The ability of Example compound 56 to inhibit RAS-effector PPI using the above cell-based RAS-effector BRET2 assay was investigated. […] We determined the effect of compound 56 (labelled Abd-7) on the interaction of KRAS^G12D and with PI3Kα and PI3Kγ, CRAF RAS-binding domain (RBD) and RALGDS RAS-associating domain (RA) compared with the low affinity Reference Compound Abd-2 FIG. 1a). […]
For orientation: Bioluminescence resonance energy transfer reports proximity on the nanometre scale.

Assay [2] concerns the target T2, NRASQ61H interaction with PI3K, CRAF, RALGDS (Homo sapiens, UniProt P01111, Q61H).
T2 construct: expressed in transfected cells; host or cells: HEK293T
Kind of assay: BRET2 cell assay, NRAS Q61H-effector interaction.
Description: as §1, §2, §3, §4

Assay [3] has as its target T3, KRASG12D interaction with PI3Kα, PI3Kγ, CRAF RBD, RALGDS RA (Homo sapiens, UniProt P01116, G12D).
T3 construct: expressed in transfected cells; host or cells: HEK293T
Briefly: BRET2 cell assay, KRAS G12D-effector interaction.
Description: as §1
as §3, with “plate. 24 hours later, cells were transfected with an appropriated BRET-based RAS biosensor (i.e. RAS-effector) using Lipofectamine 2000 transfection reagent (Thermo-Fisher).” for “plate.”
as §4

Entries after “also recorded” stand apart in the source; their conditions may differ.

On to `O=C(NCC1COc2ccccc2O1)c1ccco1` (stereo not drawn) [Abd-2, reference compound], for which the “Effect on BRET signal, HRAS G12V/effector interactions” value in assay [1] is “does not interfere with the BRET signal”. Besides, in assay [2], the “Effect on BRET signal, NRAS Q61H/effector interactions” value is listed as “does not interfere with the BRET signal”. For the same molecule, the “Effect on BRET signal, KRAS G12D/effector interactions” value in assay [3] was “no effect on the BRET signal; also recorded: not with the Abd-2”.
